For data set [1] the following is noted: in water; cited from earlier work.
Data set [2] concerns mixed cooling water bacterial culture. In words: Control experiments: bromide addition alone in phosphate buffer, plate counts. Type of data set: cell-based. As to the method: In order to make certain that the observed biocidal performance enhancement is not caused by the bromide addition alone, a set of control experiments are conducted. […] The differences among all the plate count results are well within the detection limit. Therefore, the performance improvement seen in Examples 1-3 is not caused by the increased concentration of sodium bromide alone.

`BrBr` [elemental liquid bromine, bromine]: the solubility in data set [1] is given as under 4 g/100 g water.

Regarding `[Br-].[Na+]` [NaBr, sodium bromide], the “Biocidal effect of bromide addition alone” value in data set [2] (50-150 ppm NaBr in phosphate buffer) is “not biocidal”. For the same compound, the Bacterial counts in data set [2] (50 ppm NaBr, 0 minutes) is given as 7.3 × 10^5 CFU/ml; in data set [2] (50 ppm NaBr, 5 minutes) it was 9.3 × 10^5 CFU/ml; in data set [2] (50 ppm NaBr, 10 minutes) it was 7.0 × 10^5 CFU/ml; in data set [2] (50 ppm NaBr, 60 minutes), 8.0 × 10^5 CFU/ml; in data set [2] (100 ppm NaBr, 0 minutes) it was 7.3 × 10^5 CFU/ml; in data set [2] (100 ppm NaBr, 5 minutes), 11.0 × 10^5 CFU/ml. Moreover, the Bacterial counts in data set [2] (100 ppm NaBr, 10 minutes) is 8.2 × 10^5 CFU/ml; in data set [2] (100 ppm NaBr, 60 minutes) it was 5.4 × 10^5 CFU/ml; in data set [2] (150 ppm NaBr, 0 minutes) it was 7.3 × 10^5 CFU/ml; in data set [2] (150 ppm NaBr, 5 minutes), 8.4 × 10^5 CFU/ml; in data set [2] (150 ppm NaBr, 10 minutes), 5.2 × 10^5 CFU/ml; in data set [2] (150 ppm NaBr, 60 minutes), 8.3 × 10^5 CFU/ml.
